Test results reported in article PMC6792352, “Limited Chemical Structural Diversity Found to Modulate Thyroid Hormone Receptor in the Tox21 Chemical Library” (Environmental Health Perspectives, 2019).
Counter-ions that a name gives are not always drawn.

Test: in vitro
Conditions: rat, gh3-tre-luc cells, AC50 (uM) modified / 1000

SMILES	CC50 at 24 h [µM]
C=CC(=O)NCOCC(C)C [N-(Isobutoxymethyl)acrylamide]	> 90
CC/C=C/C#N [2-Pentenenitrile]	> 90
O=C(O)c1cc(O)c2ccccc2c1O [1,4-Dihydroxy-2-naphthoic acid]	12.2
Brc1c2ccccc2cc2ccccc12 [9-Bromoanthracene]	> 90
O=C(O)COC(=O)Cc1ccccc1Nc1c(Cl)cccc1Cl [Aceclofenac]	> 20
COc1cc(/C=C2\CCC/C(=C\c3ccc(O)c(OC)c3)C2=O)ccc1O [Cyclovalone]	7.98
C[C@H]1C[C@@H](O)CC(C)(C)C1 (stereo in doubt) [(1R,5R)-3,3,5-trimethylcyclohexanol]	> 90
CCC(C)(C)C1CCC(O)CC1 (stereo not shown) [4-(2-Methylbutan-2-yl)cyclohexanol]	> 90
Clc1nc(C(Cl)(Cl)Cl)c(Cl)c(Cl)c1Cl [2,3,4,5-Tetrachloro-6-(trichloromethyl)pyridine]	22.4
CC1=CC[C@H](CC=O)C1(C)C [[(1R)-2,2,3-Trimethylcyclopent-3-en-1-yl]acetaldehyde]	> 90
CC(C)(CO)COC(=O)C(C)(C)CO [3-Hydroxy-2,2-dimethylpropyl 3-hydroxy-2,2-dimethylpropanoate]	> 90
O=C(O)c1ccc2c(c1)nc(C(=O)NC1CCN(C3CC3)CC1)n2Cc1cc(-c2ccc(Cl)s2)on1 [AVE3247]	> 20
CCCCCCC(CO)CCCC (stereo not shown) [2-Butyloctan-1-ol]	> 90
CC1(CN2CCC(n3c(=O)[nH]c4ccccc43)CC2)OCc2ccccc2-n2cccc21 (stereo not shown) [Zaldaride]	32.7
OCCCC1CCCCC1 [3-Cyclohexylpropan-1-ol]	> 90
CCC12COCN1COC2 [Oxazolidine-E]	> 90
O=S(=O)(O)c1ccc(Cl)cc1 [4-Chlorobenzenesulfonic acid]	> 90
CC(C)S [Isopropyl mercaptan]	> 90
O=C(O)CONC(=O)c1ccccc1 [Benzadox]	> 90
O=C1N(c2ccccc2)c2ccccc2C1(Cc1ccncc1)Cc1ccncc1 [Linopirdine]	> 50
CN1Cc2c(N)cccc2C(c2ccccc2)C1 (stereo not shown) [Nomifensine]	38.8

SMILES	CC50 at 24 h [µM]
CCCCCCC(=O)O[C@H]1CC[C@H]2[C@@H]3CCc4cc(O)ccc4[C@H]3CC[C@]12C [Estradiol enanthate]	> 50
C#C[C@]1(O)CC[C@H]2[C@@H]3CCC4=CC(=NO)CC[C@@H]4[C@H]3CC[C@@]21CC [Norelgestromin]	35.1
O=C(/C=C/c1ccc(O)c(O)c1)O[C@@H]1C[C@](O)(C(=O)O)C[C@@H](O)[C@H]1O [Chlorogenic acid]	> 90
O=C1c2ccccc2C(=O)C1c1ccc(Cl)cc1 [Clorindione]	> 50
N#CC1(N)CCCCC1 [1-Aminocyclohexanecarbonitrile]	> 90
Cc1ccnc(N)c1 [4-Methylpyridin-2-amine]	> 90
CC(C)CC(=O)C1C(=O)c2ccccc2C1=O [2-Isovaleryl-1,3-indanedione]	> 90
O=C(O)CCc1nc2ccccc2[nH]1 [Procodazole]	> 50
CCCCCCCCCCCCSC#N [Lauryl thiocyanate]	> 90
CC/C(=N\OC/C=C/Cl)C1=C(O)CC(C2CCOCC2)CC1=O (stereo not shown) [Tepraloxydim]	> 90
ClCCCl [1,2-Dichloroethane]	> 90
Cc1ccc(O)c(N)c1 [2-Amino-4-methylphenol]	33.5
O=C1CN2Cc3c(ccc(Cl)c3Cl)N=C2N1 [Anagrelide hydrochloride]	> 50
Cc1cccc(C)c1N(CCCc1cccnc1)C(=O)C(C)N (stereo not shown) [Ro 22-9194]	> 50
CCCCCCOC(=O)c1ccc(O)cc1 [Hexylparaben]	56.8
O=C(CCCCCCCCCCCCC1CCCC1)Nc1ccc(S(=O)(=O)c2ccc(NC(=O)CCCCCCCCCCCCC3CCCC3)cc2)cc1 [Chaulmosulfone]	> 50
CCCC1CCCC(=O)O1 (stereo not shown) [delta-Octanolactone]	> 90
C[C@H]1O[C@@H](O[C@H]2[C@@H](O)C[C@H](O[C@H]3[C@@H](O)C[C@H](O[C@H]4CC[C@@]5(C)[C@H](CC[C@@H]6[C@@H]5C[C@@H](O)[C@]5(C)[C@@H](C7=CC(=O)OC7)CC[C@]65O)C4)O[C@@H]3C)O[C@@H]2C)C[C@H](O)[C@@H]1O [Digoxin]	> 90
CN(C)CCn1nnnc1SCC1=C(C(=O)O)N2C(=O)[C@@H](NC(=O)Cc3csc(N)n3)[C@H]2SC1 [Cefotiam hydrochloride]	> 20
CCN(CC)C(C)=O [Diethylacetamide]	> 100
CC(C)=CCC/C(C)=C/CC/C(C)=C/CO [Farnesol]	68.1

SMILES	CC50 at 24 h [µM]
Oc1noc2c1CCNC2 [Gaboxadol]	> 50
CCOc1nc2cccc(C(=O)OC(C)OC(=O)OC3CCCCC3)c2n1Cc1ccc(-c2ccccc2-c2nnn[nH]2)cc1 (stereo not shown) [Candesartan cilexetil]	31.1
CCCCCCCCCCCCCCCCCCOS(=O)(=O)O [Octadecyl sulfate sodium salt]	53.1
C[N+](C)(CCCCCC[N+](C)(C)C1c2ccccc2-c2ccccc21)C1c2ccccc2-c2ccccc21 [Hexafluorenium dibromide]	> 50
NNCCc1ccccc1 [Phenylethylhydrazine sulfate]	32.3
NC(CS)C(=O)O (racemic) [DL-Cysteine]	> 50
CCCCCCCCCCCO [1-Undecanol]	> 90
C=CC(N)=O [Acrylamide]	> 90
CC(C)(Cl)Cl [2,2-Dichloropropane]	> 90
Cc1cc(C)nc(NS(=O)(=O)c2ccc(N)cc2)n1 [Sulfamethazine]	> 90
C=CC(=O)OCC[N+](C)(C)C [2-(Dimethylamino)ethyl acrylate methochloride]	> 90
N#Cc1ccc(C2CCCc3cncn32)cc1 (stereo not shown) [Fadrozole hydrochloride]	> 40
O=C(NC(=O)c1c(F)cccc1F)Nc1ccc(Cl)cc1 [Diflubenzuron]	> 90
CC(=O)CC(c1ccc([N+](=O)[O-])cc1)c1c(O)c2ccccc2oc1=O (stereo not shown) [Acenocoumarol]	> 20
Cc1ccc2nc(-c3ccc(N)cc3)sc2c1S(=O)(=O)O	> 50
CC(C)NNC(=O)c1ccncc1 [Iproniazid sulfate]	> 50
C=CCCC#N [4-Pentenenitrile]	> 90
CCCCCc1ccc(C)cc1O [Amylmetacresol]	> 50
C=COCC1CCC(COC=C)CC1 (stereo not shown) [1,4-Bis[(ethenyloxy)methyl]cyclohexane]	> 90
CN[C@@H]1[C@H](O)[C@H](NC)[C@H]2O[C@@]3(O)C(=O)C[C@@H](C)O[C@H]3O[C@@H]2[C@H]1O [Spectinomycin dihydrochloride]	> 20
CC(C)(C)C(=O)NCCCC(=O)O [Pivagabine]	> 50

Same assay, conditions: rat, gh3-tre-luc cells, AC50 (uM) modified / 1000, Tox21_110001=Tox21_111832; viability, 1 nM T3 present, 24 h

SMILES	CC50 at 24 h [µM]
c1ccc(C2(N3CCCC3)CCCCC2)cc1 [Rolicyclidine]	14.9

Same assay, conditions: rat, gh3-tre-luc cells, AC50 (uM) modified / 1000, Tox21_110001=Tox21_201129; viability, 1 nM T3 present, 24 h

SMILES	CC50 at 24 h [µM]
C=CCOC(=O)c1ccccc1N [Allyl anthranilate]	> 90

Same assay, conditions: rat, gh3-tre-luc cells, AC50 (uM) modified / 1000, Tox21_110001=Tox21_201338; viability, 1 nM T3 present, 24 h

SMILES	CC50 at 24 h [µM]
CNC(=O)ON=CC(C)(C)S(C)(=O)=O [Aldoxycarb]	> 90

Same assay, conditions: rat, gh3-tre-luc cells, AC50 (uM) modified / 1000, Tox21_110001=Tox21_400081; viability, 1 nM T3 present, 24 h

SMILES	CC50 at 24 h [µM]
CCOP(=O)(O)N(c1ccc(SC)c(C)c1)C(C)C [Fenamiphos]	> 90
